# According to patent US20180271847A1, “TREATMENT OF ACUTE TRAUMATIC INJURY” (priority 2015, published 2018):
# Experiments:
# [1] = system: contusion injuries to the spinal cord; assay: Behavioral analysis of motor function after spinal cord contusion injury; format: in vivo, Long Evans rats; conditions: rats
# Method: Experiments were initiated with behavioral analysis of rats receiving contusion injuries to the spinal cord, which is one of the most widely studied of all experimental models of traumatic injury. 8-10 week old Long Evans rats (female) underwent laminectomy at thoracic vertebrae 9 and a 200 kilodyne impact was delivered to the spinal cord using an the Infinite Horizons impactor. Animals were allowed to recover on a heated pad and then treatment was started 24 hours after surgery in order to determine whether a clinically useful window of opportunity for initiation of treatment exists for use of this intervention. Animals received 1 mg/kg 4-AP twice a day for seven days, then received 1 mg/kg 4-AP […] for the following seven days. After two weeks, the animals were taken off 4-AP entirely and allowed to continue for 2 weeks to test for stability of recovery.
# FIGS. 1-4 provide evidence of enhanced recovery of a variety of aspects of motor function. […] Of particular interest were observations that when rats were switched to once-a-day administration of 4-AP and all behavioral analyses were conducted at a time point when the 4-AP half-life in rats predicts that levels in vivo were far below those necessary to observe any effects on motor function, recovery of function was still seen at a time when active levels of 4-AP would not have been present. […] FIG. 2 provides information on the speed of the paw during its swing movement (i.e., stride length/swing time). […] FIG. 3 provides information on the distance between the outer toes (i.e., toe spread), a sensitive indicator of normal motor function in the foot itself. […] In contrast, rats treated with 4-AP show normal behavior beginning 10 days post-injury, and this behavior is maintained when drug treatment ends at day 14. FIG. 4 provides information on the length of the foot print, a sensitive indicator of normal motor function in the foot itself. […] In contrast, rats treated with 4-AP show normal behavior beginning 10 days post-injury, and this behavior is maintained when drug treatment ends at day 14. All improvements were durable when treatment was stopped at 2 weeks post-injury.
# motor neurons = assay: Count of large NeuN+ putative motor neurons in spinal cord 28 days after injury; format: in vivo; conditions: rats, 28 days after spinal cord injury; large NeuN+ cells, ventral side of the cord
# Text: FIGS. 8A-8C show the rescue of motor neurons by administration of 4-AP in acute traumatic injury to the spinal cord of the central nervous system. Another example of an unanticipated ability of the administration of 4-AP to provide benefit in acute traumatic injury was obtained by examining the number of motor neurons present in spinal cords of rats analyzed 28 days after injury, as in Example 1. Tissue sections were labeled with antibodies to the NeuN antigen, which is a marker of all neuronal populations. Due to the size and location of these neurons, they can only be motor neurons. Large neurons on the ventral side of the cord were then counted, in regions similarly distal or proximal to the lesion site. […] FIGS. 8B and 8C are graphs showing quantification of large NeuN+ cells in 1 mm^3 region proximal (p=0.06) and distal (p=0.04) to the lesion edge in 4-AP and control sections. […]
# Rescue of motor neurons by administration of 4-AP in acute traumatic injury to the spinal cord of the central nervous system. Another example of an unexpected ability of the administration of 4-AP to provide benefit in acute traumatic injury was obtained by examining the number of motor neurons present in spinal cords of rats analyzed 28 days after injury, as in Example 1. […] Large neurons on the ventral side of the cord were then counted, in regions similarly distal or proximal to the lesion site.
# [2] = system: traumatic damage to the peripheral nervous system; assay: Recovery of function after traumatic damage to the peripheral nervous system; format: in vivo; conditions: following traumatic damage to the peripheral nervous system
# sciatic nerve crush = assay: Electron microscopy of sciatic nerve after crush injury with local 4-AP PLGA films; format: in vivo
# Text: A comparison of the axonal area of randomly chosen individual axons of vehicle treated and 4-AP treated mice (n=4 for each experimental group; 40 axons analyzed per mouse) is shown. […] (**: p<0.01; ANOVA).
# In the experiment below, mice received crush injuries to the sciatic nerve and then a sustained release formulation of 4-AP in a PLGA formulation (4-AP films) was applied locally at the site of injury. At the time that nerve conduction velocity began to recover, nerves were isolated and studied by electron microscopy. […] In uninjured myelinated axons, the average area of a myelinated axon (excluding the myelin) was 11.2+/−1.3 μm^2. In injured nerves treated with PLGA film only, the average area of myelinated axons decreased to 5.7+/−0.2 μm^2 (FIG. 9A). In nerves treated with 4-AP-containing films, the average area of myelinated axons was 6.7+/−0.4 μm^2 (p<0.05 versus mice treated only with film). In addition, the proportion of axons with areas above the average value for uninjured nerves was 5+/−3% in injured nerves treated with vehicle alone but increased to 15+/−2% in nerves treated with 4-AP containing films (p<0.05).
# On day 21 after injury, the average thickness of the myelin within the injured area was 0.53+/−0.03 μm but was 0.95+/−0.14 μm with localized 4-AP administration (p<0.01), as compared with an average myelin thickness in uninjured nerves of 1.26+/−0.08 μm. […] The myelin area was also measured (FIG. 9C, D) and it was determined that the average cross-sectional area of myelin per myelinated large axon in uninjured nerve was 14.8+/−1.7 μm^2, 4.9+/−0.3 μm^2 in injured nerve, and was restored to 10.1+/−0.7 μm^2 with localized 4-AP administration (p<0.01). In 4-AP treated mice, 21.2+/−9.3% of axons had myelin areas that were above the average for uninjured nerve, while this value in vehicle-treated mice was only 1.9+/−1.4%.
# The benefits of treatment were also observed by analysis of the ratio of the area of the axon to the area of the axon plus associated myelin. This g^area ratio, a variant of the usually employed g-ratio, was calculated due to the decreased circularity in injured nerve. […] However, with local 4-AP treatment, the g^area-ratio was in the normal range of 0.43+/−0.09 (p<0.01) (FIG. 9D).
# The number of total myelinated axons per TEM grid examined (2310 μm^2) was 82+/−5 axons in undamaged nerve, as compared with 55+/−4 axons in injured vehicle-treated mice and 71+/−4 axons in 4-AP treated mice (p<0.01 for vehicle-treated vs. 4-AP treated mice).
# [3] = spinal cord contusion, 1 mg/kg 4-AP for 14 days, maintained after treatment ends at day 14
# [4] = mice, localized 4-AP (PLGA films)
structure (smiles),measurement,setting,value
"Nc1ccncc1 [4-AP, 4-aminopyridine]","Basso, Beattie and Bresnahan (BBB) scores, recovery versus placebo (saline)","[1]; 200 kilodyne contusion at thoracic vertebrae 9, 1 mg/kg 4-AP twice a day for seven days then seven further days, started 24 hours after surgery",significant improvement over placebo (saline) treated rats as early as 3 days after treatment
same,length of the foot print: normal behavior beginning,[1]; [3],10 days post-injury
same,toe spread (distance between the outer toes): normal behavior beginning,[1]; [3],10 days post-injury
same,return to normal swing speed (stride length/swing time),"[1]; spinal cord contusion, 1 mg/kg 4-AP for 14 days, normal defined by sham surgery group, maintained after treatment ends at day 14",≤ 10 days post-injury
same,motor function after treatment was stopped 14 days after injury,"[1]; spinal cord contusion, 1 mg/kg 4-AP for 14 days, through the rest of the 28 days of analysis",durable improvements in motor function
same,number of motor neurons in regions distal to the injury,motor neurons,clearly significant increase in the number of motor neurons
same,number of motor neurons in regions proximal to the injury,motor neurons,very similar degree of increase in motor neurons
same,recovery of motor function and electrophysiological function,[2],more rapid recovery of motor function and electrophysiological function
same,myelinated axons with a g^area-ratio less than the average for uninjured mice,sciatic nerve crush; 21 days after injury,54.4+/−18.5%
same,average g^area-ratio (area of the axon to area of the axon plus associated myelin),"sciatic nerve crush; mice, 21 days after injury, local 4-AP treatment",0.43+/−0.09
same,number of total myelinated axons per TEM grid examined (2310 μm^2),"sciatic nerve crush; mice, 21 days post injury",71+/−4 axons
same,axons with myelin thickness above the average for uninjured nerve,"sciatic nerve crush; mice, day 21, localized 4-AP (PLGA films)",21.4+/−10.8%
same,average thickness of the myelin within the injured area,"sciatic nerve crush; mice, day 21 after injury, localized 4-AP (PLGA films)",0.95+/−0.14 μm
same,average cross-sectional area of myelin per myelinated large axon,sciatic nerve crush; [4],10.1+/−0.7 μm^2
same,axons with myelin areas above the average for uninjured nerve,sciatic nerve crush; [4],21.2+/−9.3%
